# Source: ChEMBL document CHEMBL1135070, “Synthesis of a magnosalin derivative, 4-(3,4,5-trimethoxyphenyl)-6-(2,4,5-trimethoxyphenyl)-2-diethylaminopyrimidine, and the anti-angiogenic and anti-rheumatic effect on mice by oral administration” (Bioorg Med Chem Lett, 2002)
# What was measured:
# [1] = system: Mus musculus; assay: Antirheumatic effect was determined in mice after combined treatment of TAS-202 (30 mg/kg/day) and indomethacin (1 mg/kg/day) at day 14; type: functional
# [2] = system: Mus musculus; assay: Antirheumatic effect was determined in mice after oral administration of a dose of 1 mg/kg/day at day 14; type: functional; details: 336 h
# [3] = system: HUVEC; assay: Anti-proliferative effect on human umbilical vein endothelial cells (HUVEC) induced by vascular endothelial growth factor (VEGF) at 0.1 (uM) concentration; type: functional
# [4] = system: HUVEC; assay: Anti-proliferative effect on human umbilical vein endothelial cells (HUVEC) induced by fetal bovine serum (FBS) at 1 uM concentration; type: functional
# [5] = system: HUVEC; assay: Anti-proliferative effect on human umbilical vein endothelial cells (HUVEC) induced by ECGS at 1 uM concentration by measuring [3H]thymidine incorporation; type: functional
# [6] = Anti-proliferative activity of KB cells from head and neck cancer cell line induced by fetal bovine serum (FBS) at 1 (uM) concentrations for [3H]- thymidine incorporation; type: functional, Homo sapiens, Cancer cell lines
# [7] = Anti-proliferative activity of KB cells from head and neck cancer cell line induced by fetal bovine serum (FBS) at 0.3 (uM) concentrations for % inhibition; type: functional, Homo sapiens, Cancer cell lines
# [8] = system: HUVEC; assay: Anti-proliferative effect on human umbilical vein endothelial cells (HUVEC) induced by basic fibroblast growth factor (bFGF) at 1 (uM) concentration; type: functional
# [9] = system: HUVEC; assay: Anti-proliferative effect on human umbilical vein endothelial cells (HUVEC) induced by vascular endothelial growth factor (VEGF) at 0.3 (uM) concentration; type: functional
# [10] = system: HUVEC; assay: Anti-proliferative effect on human umbilical vein endothelial cells (HUVEC) induced by endothelial cell growth supplement (ECGS) at 1 (uM) concentration; type: functional
# [11] = system: HUVEC; assay: Anti-proliferative effect on HUVEC induced by basic fibroblast growth factor (bFGF)at 1 uM concentration by measuring [3H]thymidine incorporation; type: functional, Homo sapiens
# [12] = organism: Homo sapiens; assay: Anti-proliferative activity on NHDF induced by fetal bovine serum (FBS) at 0.3 uM concentration by measuring [3H]thymidine incorporation; type: functional
# [13] = system: HUVEC; assay: Anti-proliferative effect on human umbilical vein endothelial cells (HUVEC) induced by vascular endothelial growth factor (VEGF) at 1 (uM) concentration; type: functional
# [14] = system: HUVEC; assay: Anti-proliferative effect on human umbilical vein endothelial cells (HUVEC) induced by basic fibroblast growth factor (bFGF); type: functional, cell-based
# [15] = system: HUVEC; assay: Anti-proliferative effect on HUVEC induced by fetal bovine serum (FBS) at 0.1 uM concentration by measuring [3H]thymidine incorporation; type: functional, Homo sapiens
# [16] = system: HUVEC; assay: Anti-proliferative effect on HUVEC induced by vascular endothelial growth factor (VEGF)at 0.3 uM concentration by measuring [3H]thymidine incorporation; type: functional, Homo sapiens
# [17] = system: HUVEC; assay: Anti-proliferative effect on human umbilical vein endothelial cells (HUVEC) induced by fetal bovine serum (FBS); type: functional, cell-based
# [18] = system: HUVEC; assay: Anti-proliferative effect on human umbilical vein endothelial cells (HUVEC) induced by ECGS at 0 uM concentration by measuring [3H]thymidine incorporation; type: functional
# [19] = Anti-proliferative activity of KB cells from head and neck cancer cell line induced by fetal bovine serum (FBS) at 0 uM concentrations for [3H]thymidine incorporation; type: functional, Homo sapiens, Cancer cell lines
# [20] = system: HUVEC; assay: Anti-proliferative effect on human umbilical vein endothelial cells (HUVEC) induced by fetal bovine serum (FBS) at 0.1 (uM) concentration; type: functional
# [21] = system: HUVEC; assay: Anti-proliferative effect on HUVEC induced by vascular endothelial growth factor (VEGF)at 1 uM concentration by measuring [3H]thymidine incorporation; type: functional, Homo sapiens
# [22] = organism: Homo sapiens; assay: Anti-proliferative activity on NHDF induced by fetal bovine serum (FBS) at 0.1 uM concentration by measuring [3H]thymidine incorporation; type: functional
# [23] = system: HUVEC; assay: Anti-proliferative effect on HUVEC induced by basic fibroblast growth factor (bFGF)at 0 uM concentration by measuring [3H]thymidine incorporation; type: functional, Homo sapiens
# [24] = organism: Homo sapiens; assay: Anti-proliferative activity of normal human dermal fibroblasts (NHDF) induced by fetal bovine serum (FBS) at 0.3 uM concentration; type: functional
# [25] = Anti-proliferative activity of KB cells from head and neck cancer cell line induced by fetal bovine serum (FBS) at 1 (uM) concentration for % inhibition; type: functional, Homo sapiens, Cancer cell lines
# [26] = system: HUVEC; assay: Anti-proliferative effect on human umbilical vein endothelial cells (HUVEC) induced by endothelial cell growth supplement (ECGS) at 0.3 (uM) concentration; type: functional
# [27] = system: HUVEC; assay: Anti-proliferative effect on human umbilical vein endothelial cells (HUVEC) induced by basic fibroblast growth factor (bFGF) at 0.1 (uM) concentration; type: functional
# [28] = system: HUVEC; assay: Anti-proliferative effect on HUVEC induced by basic fibroblast growth factor (bFGF)at 0.3 uM concentration by measuring [3H]thymidine incorporation; type: functional, Homo sapiens
# [29] = organism: Homo sapiens; assay: Anti-proliferative activity on NHDF induced by fetal bovine serum (FBS) at 0 uM concentration by measuring [3H]thymidine incorporation; type: functional
# [30] = system: HUVEC; assay: Anti-proliferative effect on HUVEC induced by vascular endothelial growth factor (VEGF)at 0 uM concentration by measuring [3H]thymidine incorporation; type: functional, Homo sapiens
# [31] = system: HUVEC; assay: Anti-proliferative effect on human umbilical vein endothelial cells (HUVEC) induced by vascular endothelial growth factor (VEGF); type: functional, cell-based
# [32] = system: Mus musculus; assay: Antirheumatic effect was determined in mice after oral administration of a dose of 30 mg/kg/day at day 14; type: functional; details: 336 h
# [33] = system: HUVEC; assay: Anti-proliferative effect on human umbilical vein endothelial cells (HUVEC) induced by ECGS at 0.1 uM concentration by measuring [3H]thymidine incorporation; type: functional
# [34] = Anti-proliferative activity of KB cells from head and neck cancer cell line induced by fetal bovine serum (FBS) at 0.1 (uM) concentrations for [3H]- thymidine incorporation; type: functional, Homo sapiens, Cancer cell lines
# [35] = system: HUVEC; assay: Anti-proliferative effect on HUVEC induced by fetal bovine serum (FBS) at 0 uM concentration by measuring [3H]thymidine incorporation; type: functional, Homo sapiens
# [36] = system: HUVEC; assay: Anti-proliferative effect on HUVEC induced by fetal bovine serum (FBS) at 1 uM concentration by measuring [3H]-thymidine incorporation; type: functional, Homo sapiens
# [37] = system: HUVEC; assay: Anti-proliferative effect on human umbilical vein endothelial cells (HUVEC) induced by fetal bovine serum (FBS) at 0.3 (uM) concentration; type: functional
# [38] = system: HUVEC; assay: Anti-proliferative effect on HUVEC induced by basic fibroblast growth factor (bFGF)at 0.1 uM concentration by measuring [3H]thymidine incorporation; type: functional, Homo sapiens
# [39] = organism: Homo sapiens; assay: Anti-proliferative activity on NHDF induced by fetal bovine serum (FBS) at 1 uM concentration by measuring [3H]thymidine incorporation; type: functional
# [40] = system: HUVEC; assay: Anti-proliferative effect on HUVEC induced by vascular endothelial growth factor (VEGF)at 0.1 uM concentration by measuring [3H]thymidine incorporation; type: functional, Homo sapiens
# [41] = organism: Homo sapiens; assay: Anti-proliferative activity on normal human dermal fibroblasts (NHDF) induced by fetal bovine serum (FBS) at 0.1 uM concentration; type: functional
# [42] = organism: Homo sapiens; assay: Anti-proliferative activity on normal human dermal fibroblasts (NHDF) induced by fetal bovine serum (FBS) at 1 uM concentration; type: functional
# [43] = system: HUVEC; assay: Anti-proliferative effect on human umbilical vein endothelial cells (HUVEC) induced by basic fibroblast growth factor (bFGF) at 0.3 (uM) concentration; type: functional
# [44] = Anti-proliferative activity of KB cells from head and neck cancer cell line induced by fetal bovine serum (FBS) at 0.1 (uM) concentrations for % inhibition; type: functional, Homo sapiens, Cancer cell lines
# [45] = system: HUVEC; assay: Anti-proliferative effect on human umbilical vein endothelial cells (HUVEC) induced by ECGS at 0.3 uM concentration by measuring [3H]thymidine incorporation; type: functional
# [46] = system: HUVEC; assay: Anti-proliferative effect on human umbilical vein endothelial cells (HUVEC) induced by endothelial cell growth supplement (ECGS); type: functional, cell-based
# [47] = Anti-proliferative activity of KB cells from head and neck cancer cell line induced by fetal bovine serum (FBS) at 0.3 (uM) concentrations for [3H]- thymidine incorporation; type: functional, Homo sapiens, Cancer cell lines
# [48] = system: HUVEC; assay: Anti-proliferative effect on HUVEC induced by fetal bovine serum (FBS) at 0.3 uM concentration by measuring [3H]thymidine incorporation; type: functional, Homo sapiens
compound,measurement,setting,value
COc1ccc2c(c1)c(CC(=O)O)c(C)n2C(=O)c1ccc(Cl)cc1 [INDOMETHACIN],Inhibition,[1],75%
same,inhibition in vivo at 1 mg/kg/day,[2],22.2%
CCN(CC)c1nc(-c2cc(OC)c(OC)c(OC)c2)cc(-c2cc(OC)c(OC)cc2OC)n1,Inhibition,[3],10.4%
same,inhibition at 1 µM,[4],79.4%
same,Activity,[5],359 c.p.m.
same,Activity,[6],13366.5 c.p.m.
same,Inhibition,[7],16.5%
same,Inhibition,[8],70.3%
same,Inhibition,[9],39.2%
same,Inhibition,[10],87.2%
same,Activity,[11],2969.9 c.p.m.
same,Activity,[12],2209.9 c.p.m.
same,Inhibition,[13],78.4%
same,IC50,[14],561 nM
same,Activity,[15],437 c.p.m.
same,Activity,[16],1263.7 c.p.m.
same,IC50,[17],199 nM
same,Activity,[18],2810.3 c.p.m.
same,Activity,[19],18896 c.p.m.
same,Inhibition,[20],26.7%
same,Activity,[21],448 c.p.m.
same,Activity,[22],1907.7 c.p.m.
same,Activity,[23],9998.4 c.p.m.
same,inhibition at 0.3 µM,[24],-18.4%
same,Inhibition,[25],29.3%
same,Inhibition,[26],64.6%
same,Inhibition,[27],33.6%
same,Activity,[28],6927.6 c.p.m.
same,Activity,[29],1867.1 c.p.m.
same,Activity,[30],2077.3 c.p.m.
same,IC50,[31],398 nM
same,inhibition in vivo at 30 mg/kg/day,[32],32.4%
same,Activity,[33],1634.5 c.p.m.
same,inhibition at 0.1 µM,[33],41.8%
same,Activity,[34],18961.2 c.p.m.
same,Activity,[35],595.9 c.p.m.
same,Activity,[36],122.8 c.p.m.
same,Inhibition,[37],74.1%
same,Activity,[38],6638.9 c.p.m.
same,Activity,[39],2133.2 c.p.m.
same,Activity,[40],1861.3 c.p.m.
same,inhibition at 0.1 µM,[41],-2.2%
same,inhibition at 1 µM,[42],-14.3%
same,Inhibition,[43],30.7%
same,Inhibition,[44],-0.3%
same,Activity,[45],994.2 c.p.m.
same,IC50,[46],148 nM
same,Activity,[47],15784.2 c.p.m.
same,Activity,[48],154.2 c.p.m.
